Reference: article PMC9851200, “Multiparameter phenotypic screening for endogenous TFEB and TFE3 translocation identifies novel chemical series modulating lysosome function” (Autophagy, 2022)

What was measured:
[1] = system: SH-SY5Y cells
Description: Total cell lysis with 5 µL 5% Triton-X 100 (Sigma-Aldrich, T8787) is used as a positive control for the assay and toxicity is expressed as a percentage of luminescence under DMSO conditions.

[2] = biological target: T1, PRKD1 (Homo sapiens, UniProt Q15139); conditions: cited from earlier work
T1 sequence (Q15139 1-912): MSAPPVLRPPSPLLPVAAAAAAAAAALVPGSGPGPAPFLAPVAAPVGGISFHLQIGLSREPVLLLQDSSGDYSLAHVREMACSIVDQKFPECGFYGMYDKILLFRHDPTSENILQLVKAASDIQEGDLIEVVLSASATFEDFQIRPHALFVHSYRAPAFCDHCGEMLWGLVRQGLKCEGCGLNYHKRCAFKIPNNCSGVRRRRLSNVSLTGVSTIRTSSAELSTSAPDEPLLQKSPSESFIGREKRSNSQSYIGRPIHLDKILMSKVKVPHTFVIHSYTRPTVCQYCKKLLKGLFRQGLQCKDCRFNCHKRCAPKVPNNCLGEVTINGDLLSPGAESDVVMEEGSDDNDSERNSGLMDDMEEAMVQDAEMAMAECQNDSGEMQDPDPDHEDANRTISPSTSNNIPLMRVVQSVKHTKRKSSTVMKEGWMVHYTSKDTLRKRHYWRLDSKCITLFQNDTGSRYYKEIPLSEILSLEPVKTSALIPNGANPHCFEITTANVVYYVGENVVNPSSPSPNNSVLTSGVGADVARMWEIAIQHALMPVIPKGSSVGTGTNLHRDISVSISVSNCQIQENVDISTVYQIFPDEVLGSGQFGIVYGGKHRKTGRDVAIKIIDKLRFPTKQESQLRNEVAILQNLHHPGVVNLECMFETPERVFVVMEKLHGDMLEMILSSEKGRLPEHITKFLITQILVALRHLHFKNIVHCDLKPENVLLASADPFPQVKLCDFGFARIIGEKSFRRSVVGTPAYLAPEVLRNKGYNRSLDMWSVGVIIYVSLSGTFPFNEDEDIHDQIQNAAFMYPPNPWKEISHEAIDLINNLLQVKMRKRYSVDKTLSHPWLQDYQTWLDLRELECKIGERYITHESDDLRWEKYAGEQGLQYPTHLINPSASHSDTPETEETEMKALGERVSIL

[3] = biological target: T2, PRKD2 (Homo sapiens, UniProt Q9BZL6); conditions: read-out: IC50 PRKD2; cited from earlier work
T2 sequence (Q9BZL6 1-878): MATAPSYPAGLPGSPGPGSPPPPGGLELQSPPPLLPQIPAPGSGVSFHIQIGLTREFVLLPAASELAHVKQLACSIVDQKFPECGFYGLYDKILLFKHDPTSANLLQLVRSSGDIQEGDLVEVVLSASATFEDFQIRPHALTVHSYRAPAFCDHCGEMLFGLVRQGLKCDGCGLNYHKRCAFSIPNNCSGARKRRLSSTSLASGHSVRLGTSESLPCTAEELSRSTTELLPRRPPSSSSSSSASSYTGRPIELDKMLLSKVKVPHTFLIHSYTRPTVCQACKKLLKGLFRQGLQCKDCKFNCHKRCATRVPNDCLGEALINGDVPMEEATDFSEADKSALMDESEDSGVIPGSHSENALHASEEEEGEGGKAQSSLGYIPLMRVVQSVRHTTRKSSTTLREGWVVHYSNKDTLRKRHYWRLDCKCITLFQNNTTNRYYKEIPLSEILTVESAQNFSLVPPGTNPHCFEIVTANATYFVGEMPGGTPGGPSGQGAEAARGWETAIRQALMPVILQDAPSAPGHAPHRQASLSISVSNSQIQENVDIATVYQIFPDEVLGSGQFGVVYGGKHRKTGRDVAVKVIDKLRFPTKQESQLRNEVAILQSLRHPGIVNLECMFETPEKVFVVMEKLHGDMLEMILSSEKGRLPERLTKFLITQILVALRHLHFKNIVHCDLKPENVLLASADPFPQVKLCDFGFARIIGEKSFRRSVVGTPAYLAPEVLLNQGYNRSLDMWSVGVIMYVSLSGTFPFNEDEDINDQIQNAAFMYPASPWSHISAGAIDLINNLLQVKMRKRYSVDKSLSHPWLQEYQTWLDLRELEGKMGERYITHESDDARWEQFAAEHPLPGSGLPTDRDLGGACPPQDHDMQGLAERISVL

## CC[C@@H](N)CNc1ccnc(-c2cc(-c3cnn(C)c3)ccc2O)n1.Cl.Cl [CRT0066101, reference compound]
[1]
  Cellular toxicity (AK release and nuclear count, in words): pronounced cellular toxicity
  Concentrations toxic to cells (reduction in nuclear count and increase in AK signal): above 1 µM
[2]
  IC50: 1 nM
[3]
  IC50: 2.5 nM
